This note sets out measurements from patent publication US12264139B2, “Aryl sulfonamides as BLT1 antagonists” (Merck Sharp & Dohme LLC, priority 2015, dated 2025).

The target of this assay is T1, human BLT1 receptor (Homo sapiens, UniProt Q15722).
T1 construct: expressed in transfected cells; host or cells: HEK293
T1 sequence (Q15722 whole entry): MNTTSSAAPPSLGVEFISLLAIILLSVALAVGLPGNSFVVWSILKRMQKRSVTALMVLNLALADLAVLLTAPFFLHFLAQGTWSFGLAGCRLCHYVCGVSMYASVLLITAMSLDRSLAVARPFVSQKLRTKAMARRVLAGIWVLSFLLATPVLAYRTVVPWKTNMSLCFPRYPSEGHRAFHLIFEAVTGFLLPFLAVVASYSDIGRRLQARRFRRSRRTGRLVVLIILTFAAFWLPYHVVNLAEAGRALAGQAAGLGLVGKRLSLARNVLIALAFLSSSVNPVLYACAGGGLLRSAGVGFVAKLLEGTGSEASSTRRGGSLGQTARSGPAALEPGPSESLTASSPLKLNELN
As to the kind of experiment: BLT-1 cAMP Assay. The settings on record: HEK293 cells recombinantly expressing human BLT1; antagonist activity vs forskolin 4 μM and LTB4 2 nM; cAMP (CisBio kit). It is filed as cell-based.
Usually EC50 stands for the concentration giving half of the maximal effect. As for `O=S(=O)(CC(F)(F)F)Nc1ccccc1-c1ccc2c(c1)OC[C@@H](Cc1ccccn1)[C@@H]2O` (single isomer, unassigned) [Example 79, 2,2,2-Trifluoro-N-(2-((3R,4S or 3S,4R)-4-hydroxy-3-(pyridin-2-ylmethyl)chroman-7-yl)phenyl)ethanesulfonamide], the EC50 was determined as 35 nM. The figure for `O=S(=O)(CC(F)(F)F)Nc1ccccc1-c1ccc2c(c1)OC[C@@H](Cc1ccccn1)[C@@H]2O` (single isomer, unassigned) [Example 80, 2,2,2-Trifluoro-N-(2-((3S,4R or 3R,4S)-4-hydroxy-3-(pyridin-2-ylmethyl)chroman-7-yl)phenyl)ethanesulfonamide] is 481 nM. The figure for `O=S(=O)(Nc1ccccc1-c1ccc2c(c1)OC[C@@H](Cc1ccccn1)[C@@H]2O)C(F)F` (single isomer, unassigned) [Example 81, 1,1-Difluoro-N-(2-((3R,4S or 3S,4R)-4-hydroxy-3-(pyridin-2-ylmethyl)chroman-7-yl)phenyl)methanesulfonamide] is 15 nM; for `O=S(=O)(Nc1ccccc1-c1ccc2c(c1)OC[C@@H](Cc1ccccn1)[C@@H]2O)C(F)F` (single isomer, unassigned) [Example 82, 1,1-Difluoro-N-(2-((3S,4R or 3R,4S)-4-hydroxy-3-(pyridin-2-ylmethyl)chroman-7-yl)phenyl)methanesulfonamide] it is 119 nM; for `O=S(=O)(Nc1ccc(F)cc1-c1ccc2c(c1)OC[C@@H](Cc1ccccn1)[C@@H]2O)C(F)(F)F` (single isomer, unassigned) [Example 83, 1,1,1-Trifluoro-N-(4-fluoro-2-((3,4-trans)-4-hydroxy-3-(pyridin-2-ylmethyl)chroman-7-yl)phenyl)methanesulfonamide] it is 14 nM. Regarding `O=S(=O)(Nc1ncc(F)cc1-c1ccc2c(c1)OC[C@@H](Cc1ccccn1)[C@@H]2O)C(F)(F)F` (single isomer, unassigned) [Example 84, 1,1,1-Trifluoro-N-(5-fluoro-3-((3,4-trans)-4-hydroxy-3-(pyridin-2-ylmethyl)chroman-7-yl)pyridin-2-yl)methanesulfonamide], the concentration for a half-maximal effect (EC50) stood at 1610 nM. The figure for `O=S(=O)(CC(F)(F)F)Nc1ncc(F)cc1-c1ccc2c(c1)OC[C@@H](Cc1ccccn1)[C@@H]2O` (single isomer, unassigned) [Example 85] is 63 nM. The figure for `O=S(=O)(Nc1ncccc1-c1ccc2c(c1)OC[C@@H](Cc1ccccn1)[C@@H]2O)C(F)F` (single isomer, unassigned) [Example 86, 1,1-Difluoro-N-(3-((3,4-trans)-4-hydroxy-3-(pyridin-2-ylmethyl)chroman-7-yl)pyridin-2-yl)methanesulfonamide] is 156 nM. The figure for `O=S(=O)(Nc1ncccc1-c1ccc2c(c1)OC[C@@H](Cc1ccccn1)[C@@H]2O)C(F)(F)F` (single isomer, unassigned) [Example 87, 1,1,1-Trifluoro-N-(3-((3,4-trans)-4-hydroxy-3-(pyridin-2-ylmethyl)chroman-7-yl)pyridin-2-yl)methanesulfonamide] is 239 nM; for `O=S(=O)(CC(F)(F)F)Nc1ncc(C(F)(F)F)nc1-c1ccc2c(c1)OC[C@@H](Cc1ccccn1)[C@@H]2O` (single isomer, unassigned) [Example 88, 2,2,2-Trifluoro-N-(3-((3,4-trans)-4-hydroxy-3-(pyridin-2-ylmethyl)chroman-7-yl)-5-(trifluoromethyl)pyrazin-2-yl)ethanesulfonamide] it is 285 nM; for `O=S(=O)(Nc1nnc(Cl)cc1-c1ccc2c(c1)OC[C@H](Cc1ccccn1)[C@H]2O)C(F)(F)F` (single isomer, unassigned) [Example 89, N-(6-chloro-4-((3R,4S or 3S,4R)-4-hydroxy-3-(pyridin-2-ylmethyl)chroman-7-yl)pyridazin-3-yl)-1,1,1-trifluoromethanesulfonamide] it is 965 nM. As for `O=S(=O)(Nc1nnccc1-c1ccc2c(c1)OC[C@@H](Cc1ccccn1)[C@@H]2O)C(F)(F)F` (single isomer, unassigned) [Example 90, N-(4-((3,4-trans)-4-hydroxy-3-(pyridin-2-ylmethyl)chroman-7-yl)pyridazin-3-yl)-1,1,1-trifluoromethanesulfonamide], the EC50 amounted to 3080 nM. The figure for `O=S(=O)(Nc1nnc(Cl)cc1-c1ccc2c(c1)OC[C@@H](Cc1ccccn1)[C@@H]2O)C(F)(F)F` (single isomer, unassigned) [Example 91, N-(6-chloro-4-((3S,4R or 3R,4S)-4-hydroxy-3-(pyridin-2-ylmethyl)chroman-7-yl)pyridazin-3-yl)-1,1,1-trifluoromethanesulfonamide] is 2690 nM.

Regarding `CC(c1csc(-c2ccccc2)n1)[C@@H]1COc2cc(-c3ccccc3NS(=O)(=O)C(F)(F)F)ccc2[C@H]1O` (single isomer, unassigned) [Example 92], the EC50 was found to be 80 nM. In the case of `CC(c1csc(-c2ccccc2)n1)[C@@H]1COc2cc(-c3ccccc3NS(=O)(=O)C(F)(F)F)ccc2[C@H]1O` (single isomer, unassigned) [Example 97], the EC50 was 268 nM.

For the molecule `CC(c1ccccn1)C1COc2cc(-c3cc(F)ccc3NS(=O)(=O)C(F)(F)F)ccc2C1O` (single isomer, unassigned) [Example 100, 1,1,1-trifluoro-N-(4-fluoro-2-(4-hydroxy-3-(1-(pyridin-2-yl)ethyl)chroman-7-yl)phenyl) methanesulfonamide], the EC50 is 72 nM.

As for `CC(c1ccccn1)C1COc2cc(-c3cc(F)ccc3NS(=O)(=O)C(F)(F)F)ccc2C1O` (single isomer, unassigned) [Example 101, 1,1,1-trifluoro-N-(4-fluoro-2-(4-hydroxy-3-(1-(pyridin-2-yl)ethyl)chroman-7-yl)phenyl) methanesulfonamide], the EC50 was found to be 678 nM.

Regarding `CC(c1ccccn1)C1COc2cc(-c3cc(F)ccc3NS(=O)(=O)C(F)(F)F)ccc2C1O` (single isomer, unassigned) [Example 102, 1,1,1-trifluoro-N-(4-fluoro-2-(4-hydroxy-3-(1-(pyridin-2-yl)ethyl)chroman-7-yl)phenyl) methanesulfonamide], the EC50 was 78 nM. The figure for `CC(c1ccccn1)C1COc2cc(-c3cc(F)ccc3NS(=O)(=O)C(F)(F)F)ccc2C1O` (single isomer, unassigned) [Example 103, 1,1,1-trifluoro-N-(4-fluoro-2-(4-hydroxy-3-(1-(pyridin-2-yl)ethyl)chroman-7-yl)phenyl) methanesulfonamide] is 1310 nM; for `O=S(=O)(Nc1ccccc1-c1ccc2c(c1)OC[C@H](Cc1ccccn1)[C@H]2O)C(F)(F)F` [Example 54, 1,1,1-trifluoro-N-{2-[(3S,4R)-4-hydroxy-3-(pyridin-2-ylmethyl)-3,4-dihydro-2H-chromen-7-yl]phenyl}-methanesulfonamide] it is 55 nM. In the case of `O=S(=O)(Nc1ccccc1-c1ccc2c(c1)OC[C@@H](Cc1ccccn1)[C@@H]2O)C(F)(F)F` [Example 55, 1,1,1-trifluoro-N-{2-[(3R,4S)-4-hydroxy-3-(pyridin-2-ylmethyl)-3,4-dihydro-2H-chromen-7-yl]phenyl}-methanesulfonamide], the EC50 was 2020 nM. On to `CC(c1ccccn1)C1COc2cc(-c3cc(F)ccc3NS(=O)(=O)C(F)(F)F)ccc2C1O` (stereo not shown) [Example 99, 1,1,1-trifluoro-N-(4-fluoro-2-(4-hydroxy-3-(1-(pyridin-2-yl)ethyl)chroman-7-yl)phenyl) methanesulfonamide], for which the EC50 came to 1 nM.
